Consider 56 molecules from patent US11266643B2, “Triaryl compounds for treatment of PD-L1 diseases” (CHEMOCENTRYX, INC., priority 2019, dated 2022).

A value given as a limit tells only on which side of the number the result lay.

Sequence of human PD-L1 (Q9NZQ7 19-239): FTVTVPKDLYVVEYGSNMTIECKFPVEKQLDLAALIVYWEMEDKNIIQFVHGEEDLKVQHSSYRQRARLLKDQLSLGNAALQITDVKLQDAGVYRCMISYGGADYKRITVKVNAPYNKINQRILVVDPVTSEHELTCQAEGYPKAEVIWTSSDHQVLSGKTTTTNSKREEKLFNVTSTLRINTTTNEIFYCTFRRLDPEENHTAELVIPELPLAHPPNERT

The first experiment concerns the target human PD-L1 (Homo sapiens (Human), UniProt Q9NZQ7). The experiment in a line: Enzyme-Linked Immunosorbent Assay (ELISA), PD-1/PD-L1 binding. Particulars: PD-1/PD-L1 ELISA, human PD-L1 coated plates, Table 1. A digest of the protocol:
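Competitive ELISA: human PD-1 […] (0.31 μg/mL) and serially diluted compounds (1:5) incubated 1 h at 37° C on wells coated with […] human PD-L1. Signal via streptavidin-HRP/TMB, stopped with 2 N H2SO4, measured as A450.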
On the technique in general: ELISA stands for enzyme-linked immunosorbent assay.
One may read the IC50 as the concentration that inhibits the measured activity by half. Lower therefore signals greater potency in that assay. As for `COc1cc(-c2cccc(-c3cccc(NC(=O)c4cncn(C)c4=O)c3C)c2C)cc(F)c1CNC[C@@H]1CCC(=O)N1` [Example 1.211], the IC50 was under 0.01 µM.

With `COc1cc(-c2cccc(-c3cccc(NC(=O)c4ccc(CC(N)=O)cn4)c3C)c2C)cc(F)c1CN` [Example 1.310], the IC50 is under 0.01 µM. The molecule `COc1cc(-c2cccc(-c3cccc(NC(=O)c4ccccn4)c3C)c2C)cc(F)c1CN1CC[C@H](C(=O)O)C1` [Example 1.368] displayed an IC50 of 0.01 to 1 µM. Molecule `COc1cc(-c2cccc(-c3cccc(NC(=O)c4cncn(C)c4=O)c3C)c2C)cc(F)c1CN[C@H]1CCC(=O)NC1` [Example 1.255] had a concentration for half-maximal inhibition (IC50) of under 0.01 µM. Molecule `COC(=O)c1ccc(C(=O)Nc2cccc(-c3cccc(-c4cc(F)c(CNCCO)c(OC)c4)c3C)c2C)nc1` [Example 1.334] showed an IC50 of 0.01 to 1 µM. As to `COc1cc(-c2cccc(-c3cccc(NC(=O)c4c[nH]c(=O)n(C)c4=O)c3C)c2C)cc(F)c1CN1CCOCC1` [Example 1.235], the IC50 lay within 0.01 to 1 µM.

On to `COc1cc(-c2cccc(-c3cccc(NC(=O)c4c[nH]c(=O)n(C)c4=O)c3C)c2C)cc(F)c1CNCC(C)(C)O` [Example 1.232], for which the concentration for half-maximal inhibition (IC50) is under 0.01 µM. Turning to `COc1cc(-c2cccc(-c3cccc(NC(=O)c4c[nH]c(=O)n(C)c4=O)c3C)c2C)cc(F)c1CNCCO` [Example 1.270], the concentration for half-maximal inhibition (IC50) is under 0.01 µM.

The molecule `COc1cc(-c2cccc(-c3cccc(NC(=O)c4ccc(OCC(N)=O)cn4)c3C)c2C)cc(F)c1CN` [Example 1.296] returned an IC50 of under 0.01 µM. Regarding `COc1cc(-c2cccc(-c3cccc(NC(=O)c4ccccn4)c3)c2C)cc(F)c1CN1CC(C(=O)O)C1` [Example 1.375], the concentration for half-maximal inhibition (IC50) was 0.01 to 1 µM. The molecule `COc1cc(-c2cccc(-c3cccc(NC(=O)c4ccccn4)c3C)c2C)cc(F)c1CN1CC(O)C1` [Example 1.388] had a concentration for half-maximal inhibition (IC50) of under 0.01 µM. `COc1cc(-c2cccc(-c3cccc(Nc4ccnc5cccnc45)c3C)c2C)cc(F)c1CN1CC(C(=O)O)C1` [Example 1.263] yielded an IC50 of 0.01 to 1 µM. As for `COc1cc(-c2cccc(-c3cccc(NC(=O)c4ccccn4)c3C)c2C)cc(F)c1CN1CC(C(=O)O)C1` [Example 1.381], the IC50 is under 0.01 µM. Take `COc1cc(-c2cccc(-c3cccc(NC(=O)c4c[nH]c(=O)n(C)c4=O)c3C)c2C)cc(F)c1CN[C@@H]1CNC(=O)C1` [Example 1.229]: the IC50 was under 0.01 µM.

The molecule `COc1cc(-c2cccc(-c3cccc(NC(=O)c4cccnc4O)c3C)c2C)cc(F)c1CN` [Example 1.297] gave a concentration for half-maximal inhibition (IC50) of 0.01 to 1 µM. On to `COc1cc(-c2cccc(-c3cccc(NC(=O)c4ccnc(N)c4)c3C)c2C)cc(F)c1CNCCO` [Example 1.389], for which the half-inhibitory concentration (IC50) lay in the range of 1 to 10 µM.

Molecule `COc1cc(-c2cccc(-c3cccc(NC(=O)N4CCNCC4)c3C)c2C)cc(F)c1CN` [Example 1.392] registered an IC50 of 0.01 to 1 µM. On to `COc1cc(-c2cccc(-c3cccc(NC(=O)c4cncn(C)c4=O)c3C)c2C)cc(F)c1CNC1CCC1` [Example 1.202], for which the IC50 is under 0.01 µM. Consider `COc1cc(-c2cccc(-c3cccc(NC(=O)c4cccn(C)c4=O)c3C)c2C)cc(F)c1CN` [Example 1.311], for which the concentration for half-maximal inhibition (IC50) was under 0.01 µM.

The molecule `COc1cc(-c2cccc(-c3cccc(NC(=O)C4CN(C)CCO4)c3C)c2C)cc(F)c1CN` (centres unmarked) [Example 1.315] yielded an IC50 of 0.01 to 1 µM.

The experiment is the same for the next values; noted with them: human PD-1/PD-L1 ELISA, plates coated with human PD-L1.
In turn, `COc1cc(-c2cccc(-c3cccc(NC(=O)c4cncn(C)c4=O)c3C)c2C)cc(F)c1CNCC1CCCNC1=O` (centres unmarked) [Example 1.098] gave an IC50 of under 0.01 µM. `COc1cc(-c2cccc(-c3cccc(NC(=O)c4cncn(C)c4=O)c3C)c2C)cc(F)c1CN[C@H]1CCC[C@@H]1O` [Example 1.172] returned a half-inhibitory concentration (IC50) of under 0.01 µM. Molecule `COc1cc(-c2cccc(-c3cccc(NC(=O)c4c[nH]c(=O)n(C)c4=O)c3C)c2C)cc(F)c1CN[C@H]1CCOC1` [Example 1.050] came in with an IC50 of under 0.01 µM. Regarding `COc1cc(-c2cccc(-c3cccc(NC(=O)c4cncn(C)c4=O)c3C)c2C)cc(F)c1CN(C)C[C@H]1CCC(=O)N1` [Example 1.132], the IC50 lay in the range of 0.01 to 1 µM.

`COc1cc(-c2cccc(-c3cccc(NC(=O)c4cncn(C)c4=O)c3C)c2C)cc(F)c1CNC(C)(C)CO` [Example 1.151] displayed an IC50 of under 0.01 µM. `COc1cc(-c2cccc(-c3cccc(NC(=O)c4cn(C)c(=O)n(C)c4=O)c3C)c2Cl)cc(F)c1CN[C@H]1CCOC[C@@H]1O` (racemic) [Example 1.011]: the half-maximal inhibitory concentration (IC50) is under 0.01 µM. `COc1cc(-c2cccc(-c3cccc(NC(=O)c4cncn(C)c4=O)c3C)c2C)cc(F)c1CNCCC(N)=O` [Example 1.091] showed a half-maximal inhibitory concentration (IC50) of under 0.01 µM. In the case of `COc1cc(-c2cccc(-c3cccc(NC(=O)c4cn(C)c(=O)n(C)c4=O)c3C)c2C)cc(F)c1CN[C@H]1CCC(=O)NC1` [Example 1.110], the IC50 was under 0.01 µM.

As to `COc1cc(-c2cccc(-c3cccc(Nc4nccc5nccnc45)c3C)c2C)cc(F)c1CN[C@H]1CNC(=O)C1` [Example 1.153], the half-maximal inhibitory concentration (IC50) was under 0.01 µM.

Molecule `COc1cc(-c2cccc(-c3cccc(Nc4nccc5nccnc45)c3C)c2C)cc(F)c1CN[C@@H]1CCC[C@@H]1O` [Example 1.180] returned a 50% inhibitory concentration (IC50) of under 0.01 µM.

With `COc1cc(-c2cccc(-c3cccc(NC(=O)c4cn(C)c(=O)n(C)c4=O)c3C)c2Cl)cc(F)c1CN[C@@H]1CCOC[C@@H]1O` [Example 1.017], the half-inhibitory concentration (IC50) is under 0.01 µM. Consider `COc1cc(-c2cccc(-c3cccc(Nc4nccc5nccnc45)c3C)c2C)cc(F)c1CNC[C@H]1CCC(=O)N1` [Example 1.159], for which the IC50 is under 0.01 µM. For the molecule `COc1cc(-c2cccc(-c3cccc(NC(=O)c4cncn(C)c4=O)c3C)c2C)cc(F)c1CNC1CCOC1` (centres unmarked) [Example 1.139], the 50% inhibitory concentration (IC50) was under 0.01 µM. For `COc1cc(-c2cccc(-c3cccc(NC(=O)c4cn(C)c(=O)n(C)c4=O)c3C)c2C)cc(F)c1CN[C@H]1CCOC[C@@H]1O` (racemic) [Example 1.013], the 50% inhibitory concentration (IC50) is under 0.01 µM.

`COc1cc(-c2cccc(-c3cccc(Nc4nccc5c4C(=O)N(C)CC5)c3C)c2C)cc(F)c1CN(C)C[C@@H]1CCC(=O)N1` [Example 1.192] showed a 50% inhibitory concentration (IC50) of 0.01 to 1 µM.

For the molecule `COc1cc(-c2cccc(-c3cccc(NC(=O)c4cn(C)c(=O)n(C)c4=O)c3C)c2C)cc(F)c1CNCC1CCNC(=O)C1` (centres unmarked) [Example 1.067], the half-maximal inhibitory concentration (IC50) was under 0.01 µM. In the case of `COc1cc(-c2cccc(-c3cccc(Nc4cncc5nccnc45)c3C)c2C)cc(F)c1CN[C@H]1CCC(=O)NC1` [Example 1.042], the IC50 is under 0.01 µM.

Consider `COc1cc(-c2cccc(-c3cccc(NC(=O)c4c[nH]c(=O)n(C)c4=O)c3C)c2C)cc(F)c1CN[C@@H]1COC[C@H]1O` [Example 1.078], for which the half-maximal inhibitory concentration (IC50) is under 0.01 µM.

`COc1cc(-c2cccc(-c3cccc(Nc4nccc5nccnc45)c3C)c2C)cc(F)c1CNCc1ccn[nH]1` [Example 1.116] gave an IC50 of 0.01 to 1 µM. Molecule `COc1cc(-c2cccc(-c3cccc(NC(=O)c4nn(C)c(=O)n(C)c4=O)c3C)c2C)cc(F)c1CNCCC1CCC(=O)N1` (centres unmarked) [Example 1.106] yielded a half-maximal inhibitory concentration (IC50) of under 0.01 µM.

Still in this experiment, the particulars now being: plate-coated human PD-L1, biotinylated Human PD-1, absorbance at 450 nm.
Molecule `COc1cc(-c2cccc(-c3cccc(NC(=O)c4cn(C)c(=O)n(C)c4=O)c3C)c2Cl)cc(F)c1CN1CC[C@@H](C(=O)O)C1` [Example 2.021] registered a half-inhibitory concentration (IC50) of under 0.01 µM. Same read-out and setting: for `CCOc1cc(-c2cccc(-c3cccc(NC(=O)c4cn(C)c(=O)n(C)c4=O)c3C)c2Cl)ccc1CN[C@@H]1CCOC[C@@H]1O` [Example 2.048] the value was under 0.01 µM; for `COc1cc(-c2cccc(-c3cccc(NC(=O)c4c[nH]c(=O)n(C)c4=O)c3Cl)c2Cl)cc(F)c1CN[C@@H]1CCOC[C@@H]1O` [Example 2.030], under 0.01 µM; for `COc1cc(-c2cccc(-c3cccc(NC(=O)c4cn(C)c(=O)n(C)c4=O)c3C)c2Cl)cc(F)c1CN[C@H]1CCCOC1` [Example 2.080], under 0.01 µM. `COc1cc(-c2cccc(-c3cccc(NC(=O)c4cn(C)c(=O)n(C)c4=O)c3Cl)c2Cl)cc(F)c1CN[C@H]1CCOC1` [Example 2.066] registered a half-inhibitory concentration (IC50) of under 0.01 µM. Same read-out and setting: for `COc1cc(-c2cccc(-c3cccc(NC(=O)c4cn(C)c(=O)n(C)c4=O)c3C)c2C)cc(F)c1CN1CC(C(=O)O)C1` [Example 2.014] the value was under 0.01 µM; for `COc1cc(-c2cccc(-c3cccc(NC(=O)c4cn(C)c(=O)n(C)c4=O)c3Cl)c2Cl)cc(F)c1CN[C@H]1COC[C@@H]1O` [Example 2.076], under 0.01 µM; for `COc1cc(-c2cccc(-c3cccc(NC(=O)c4cn(C)c(=O)n(C)c4=O)c3C)c2Cl)cc(F)c1CN1CCCC[C@H]1C(=O)O` [Example 2.047], under 0.01 µM. On to `COc1cc(-c2cccc(-c3cccc(NC(=O)c4cn(C)c(=O)n(C)c4=O)c3C)c2Cl)cnc1CN[C@@H]1CCOC[C@@H]1O` [Example 2.049], for which the IC50 is under 0.01 µM. `COc1cc(-c2cccc(-c3cccc(NC(=O)c4cn(C)c(=O)n(C)c4=O)c3C)c2Cl)cc(F)c1CN1CCC(C(=O)O)CC1` [Example 2.019] displayed a 50% inhibitory concentration (IC50) of under 0.01 µM. In turn, `COc1cc(-c2cccc(-c3cccc(NC(=O)c4cn(C)c(=O)n(C)c4=O)c3C)c2Cl)cc(F)c1CN[C@@H]1CCOC[C@H]1O` [Example 2.102] registered a half-maximal inhibitory concentration (IC50) of under 0.01 µM. In the case of `COc1cc(-c2cccc(-c3cccc(NC(=O)c4c[nH]c(=O)n(C)c4=O)c3C)c2Cl)cc(F)c1CN[C@H]1CCC(=O)NC1` [Example 2.032], the IC50 was under 0.01 µM.

Molecule `COc1cc(-c2cccc(-c3cccc(NC(=O)c4cn(C)c(=O)n(C)c4=O)c3C)c2F)cc(F)c1CN[C@H]1CCOC[C@H]1O` [Example 2.105] yielded an IC50 of under 0.01 µM.

In turn, `COc1cc(-c2cccc(-c3cccc(NC(=O)c4cn(C)c(=O)n(C)c4=O)c3C)c2Cl)cc(F)c1CN1CCC(C)(C(=O)O)CC1` [Example 2.013] yielded a half-maximal inhibitory concentration (IC50) of under 0.01 µM. Regarding `COc1cc(-c2cccc(-c3cccc(NC(=O)c4cn(C)c(=O)n(C)c4=O)c3Cl)c2Cl)cc(F)c1CN1CCC(C)(O)CC1` [Example 2.009], the IC50 was under 0.01 µM.

Regarding `COc1cc(-c2cccc(-c3cccc(NC(=O)c4cn(C)c(=O)n(C)c4=O)c3C)c2Cl)cc(F)c1CN[C@H]1CCC[C@@H]1O` [Example 2.060], the half-maximal inhibitory concentration (IC50) was under 0.01 µM.
